From patent US20240287082A1, “NEW BENZODIAZEPINE DERIVATIVES AS GABA A GAMMA1 PAM” (Hoffmann-La Roche Inc., priority 2021, published 2024)
pKi: −log10 of the molar value. Read-outs that look alike come from different tables or passages of the source.

Columns and labels:
[1] = target: human GABAA α5β2γ1 receptor (Homo sapiens (Human), UniProt P31644+Q8N1C3); experiment: Radioligand binding assay, competition for [3H]RO7239181, γ1-containing GABAA subtype α5β2γ1
Protocol: The affinity of compounds at GABAA γ1 subunit-containing receptors was measured by competition for [^3H]RO7239181 (67.3 Ci/mmol; Roche) binding to membranes from HEK293F cells (ThermoFisher R^79007) expressing human (transiently transfected) receptors of composition α5β2γ1, α2β2γ1, α1β2γ1. For better protein expression of the α2 subunit-containing receptors, the 28 amino acid long signal peptide (Met1 to Ala28)of the human GABAA α2 subunit was substituted by the 31 amino acid long signal peptide (Met1 to Ser31) of human GABAA α5 subunit.
(§1) Harvested pellets from HEK293F cells expressing the different GABAA receptor subtypes were resuspended in Mannitol Buffer pH 7.2-7.4 (Mannitol 0.29M, Triethylamine 10 mM, Acetic acid 10 mM, EDTA 1 mM plus protease inhibitors (20 tablets Complete, Roche Diagnostics Cat. No. 05 056 489 001 per liter)), washed two times and then resuspended at 1:10 to 1:15 dilution in the same buffer. Cell disruption was performed by stirring the suspension in a Parr vessel #4637 at 435 psi for 15 minutes, and then the suspensions were centrifuged at 1000×g for 15 minutes at 4° C. (Beckman Avanti J-HC: rotor JS-4.2). The supernatant (S1) was transferred in a 21 Schott flask and the pellet (P1) was resuspended with Mannitol Buffer up to 175 ml. The resuspended pellet was transferred into a 250 ml Corning centrifugal beaker and centrifuged at 1500×g for 10 minutes at 4° C. (Beckman Avanti J-HC: rotor JS-4.2). The supernatant (S1) was then transferred in the 21 Schott flask and the pellet was discarded. The supernatants (S1) were centrifuged in 500 ml Beckman polypropylene centrifugal beaker at 15 000×g for 30 minutes at 4° C. (Beckman Avanti J-20 XP: rotor JLA-10.500). The pellet (P2) was resuspended with Mannitol Buffer 1:1 and frozen at −80° C. The supernatant (S2) was centrifuged in 100 ml Beckman polypropylene centrifugal tubes at 48000×g for 50 minutes at 4° C. (Beckman Avanti J-20 XP: rotor JA-18). The supernatant (S3) was discarded and the pellet (P3) was resuspended with 1:1 Mannitol Buffer. The P2 and P3 protein concentration was determined with the BIORAD Standard assay method with bovine serum albumin as standard and measured on the NANO-Drop 1000. The membrane suspension was aliquots (500 μl per tube) and stored at −80° C. until required.
(§2) Membrane homogenates were resuspended and polytronised (Polytron PT1200E Kinematica AG) in Potassium Phosphate 10 mM, KCl 100 mM binding buffer at pH 7.4 to a final assay concentration determined with a previous experiment.
Radioligand binding assays were carried out in a volume of 200 μL (96-well plates) which contained 100 μL of cell membranes, [3H]RO7239181 at a concentration of 1.5 nM (α5β2γ1) or 20-30 nM (α1β2γ1, α2β2γ1) and the test compound in the range of [0.3-1000]×10^−9 M. Nonspecific binding was defined by 10×10^−6 (α5β2γ1) and 30×10^−6 M RO7239181 and typically represented less than 5% (α5β2γ1) and less than 20% (α1β2γ1, α2β2γ1) of the total binding. Assays were incubated to equilibrium for 1 hour at 4° C. and then, membranes were filtered onto unifilter (96-well white microplate with bonded GF/C filters preincubated 20-50 minutes in 0.3% Polyethylenimine) with a Filtermate 196 harvester (Packard BioScience) and washed 4 times with cold Potassium Phosphate 10 mM pH 7.4, KCl 100 mM binding buffer. After anhydrousing, filter-retained radioactivity was detected by liquid scintillation counting. Ki values were calculated using Excel-Fit (Microsoft) and are the means of two determinations.

[2] = target: human GABAA α1β2γ1 receptor (Homo sapiens (Human), UniProt P14867+Q8N1C3); experiment: Radioligand binding assay, competition for [3H]RO7239181, γ1-containing GABAA subtype α1β2γ1; conditions: membranes of HEK293F cells, [3H]RO7239181 20-30 nM, mean of two determinations
Protocol: The affinity of compounds at GABAA γ1 subunit-containing receptors was measured by competition for [^3H]RO7239181 (67.3 Ci/mmol; Roche) binding to membranes from HEK293F cells (ThermoFisher R^79007) expressing human (transiently transfected) receptors of composition α5β2γ1, α2β2γ1, α1β2γ1.
as §1, §2
Assays were incubated to equilibrium for 1 hour at 4° C. and then, membranes were filtered onto unifilter (96-well white microplate with bonded GF/C filters preincubated 20-50 minutes in 0.3% Polyethylenimine) with a Filtermate 196 harvester (Packard BioScience) and washed 4 times with cold Potassium Phosphate 10 mM pH 7.4, KCl 100 mM binding buffer. After anhydrousing, filter-retained radioactivity was detected by liquid scintillation counting. Ki values were calculated using Excel-Fit (Microsoft) and are the means of two determinations.

[3] = membranes of HEK293F cells, [3H]RO7239181 1.5 nM, mean of two determinations, read-out: Ki h-GABAA α5β2γ1

Row | Structure (SMILES) | pKi [1, 3] | pKi [1] | pKi [2]
1 | CCOCCc1cn2c(nc1=O)[C@H](C)N=C(c1c(F)cccc1F)c1c-2ccc(C(F)(F)F)c1Cl [Example 20, (5S)-8-chloro-7-(2,6-difluorophenyl)-2-(2-ethoxyethyl)-5-methyl-9-(trifluoromethyl)-5H-pyrimido[1,2-a][1,4]benzodiazepin-3-one] | 8.18 |  | 
2 | Cc1cn2c(nc1=O)[C@H](C)N=C(c1c(F)cccc1F)c1c-2ccc(C(F)(F)F)c1Cl [Example 9, (5S)-8-chloro-7-(2,6-difluorophenyl)-2,5-dimethyl-9-(trifluoromethyl)-5H-pyrimido[1,2-a][1,4]benzodiazepin-3-one] |  | 8.51 | 7.01
3 | CCOCCc1cn2c(nc1=O)CN=C(c1c(F)cccc1F)c1c-2ccc(Cl)c1Cl [Example 24, 8,9-dichloro-7-(2,6-difluorophenyl)-2-(2-ethoxyethyl)-5H-pyrimido[1,2-a][1,4]benzodiazepin-3-one] | 8.52 |  | 
4 | O=c1ccn2c(n1)CN=C(c1ncccc1F)c1c-2ccc(Cl)c1Cl [Example 3, 8,9-dichloro-7-(3-fluoro-2-pyridyl)-5H-pyrimido[1,2-a][1,4]benzodiazepin-3-one] |  | 7.99 | 6.74
5 | CNC(=O)c1cn2c(nc1=O)[C@H](C)N=C(c1c(F)cccc1F)c1c-2ccc(C(F)(F)F)c1Cl [Example 27, (5S)-8-chloro-7-(2,6-difluorophenyl)-N,5-dimethyl-3-oxo-9-(trifluoromethyl)-5H-pyrimido[1,2-a][1,4]benzodiazepine-2-carboxamide] | 8.21 |  | 7.17
6 | C[C@@H]1N=C(c2c(F)cccc2F)c2c(ccc(Br)c2Cl)-n2ccc(=O)nc21 [Example 13, (5S)-9-bromo-8-chloro-7-(2,6-difluorophenyl)-5-methyl-5H-pyrimido[1,2-a][1,4]benzodiazepin-3-one] |  | 9.00 | 7.75
7 | CCc1cn2c(nc1=O)[C@H](C)N=C(c1c(F)cccc1F)c1c-2ccc(C(F)(F)F)c1Cl [Example 11, (5S)-8-chloro-7-(2,6-difluorophenyl)-2-ethyl-5-methyl-9-(trifluoromethyl)-5H-pyrimido[1,2-a][1,4]benzodiazepin-3-one] |  | 8.39 | 6.78
8 | CCO/C=C/c1cn2c(nc1=O)CN=C(c1c(F)cccc1F)c1c-2ccc(C(F)(F)F)c1Cl [Example 25, 8-chloro-7-(2,6-difluorophenyl)-2-[(E)-2-ethoxyvinyl]-9-(trifluoromethyl)-5H-pyrimido[1,2-a][1,4]benzodiazepin-3-one] | 8.03 |  | 
9 | O=c1ccn2c(n1)CN=C(c1ccccc1F)c1c-2ccc(Cl)c1Cl [Example 1, 8,9-dichloro-7-(2-fluorophenyl)-5H-pyrimido[1,2-a][1,4]benzodiazepin-3-one] |  | 8.42 | 7.20
10 | C[C@@H]1N=C(c2c(F)cccc2F)c2c(ccc(C(F)(F)F)c2Cl)-n2cc(C(=O)NC3CC3)c(=O)nc21 [Example 28, (5S)-8-chloro-N-cyclopropyl-7-(2,6-difluorophenyl)-5-methyl-3-oxo-9-(trifluoromethyl)-5H-pyrimido[1,2-a][1,4]benzodiazepine-2-carboxamide] | 8.13 |  | 
11 | CCO/C=C/c1cn2c(nc1=O)[C@H](C)N=C(c1c(F)cccc1F)c1c-2ccc(C(F)(F)F)c1Cl [Example 18, (5S)-8-chloro-7-(2,6-difluorophenyl)-2-[(E)-2-ethoxyvinyl]-5-methyl-9-(trifluoromethyl)-5H-pyrimido[1,2-a][1,4]benzodiazepin-3-one] | 8.01 |  | 
12 | C[C@@H]1N=C(c2c(F)cccc2F)c2c(ccc(Cl)c2Cl)-n2ccc(=O)nc21 [Example 4, (5S)-8,9-dichloro-7-(2,6-difluorophenyl)-5-methyl-5H-pyrimido[1,2-a][1,4]benzodiazepin-3-one] |  | 8.82 | 7.59
13 | CCO/C=C/c1cn2c(nc1=O)CN=C(c1c(F)cccc1F)c1c-2ccc(Cl)c1Cl [Example 22, 8,9-dichloro-7-(2,6-difluorophenyl)-2-[(E)-2-ethoxyvinyl]-5H-pyrimido[1,2-a][1,4]benzodiazepin-3-one] | 8.68 |  | 
14 | C[C@@H]1N=C(c2c(F)cccc2F)c2c(ccc(C(F)(F)F)c2Cl)-n2ccc(=O)nc21 [Example 10, (5S)-8-chloro-7-(2,6-difluorophenyl)-5-methyl-9-(trifluoromethyl)-5H-pyrimido[1,2-a][1,4]benzodiazepin-3-one] |  | 8.52 | 6.80
15 | CCO/C=C/c1cn2c(nc1=O)[C@H](C)N=C(c1c(F)cccc1F)c1c-2ccc(Cl)c1Cl [Example 19, (5S)-8,9-dichloro-7-(2,6-difluorophenyl)-2-[(E)-2-ethoxyvinyl]-5-methyl-5H-pyrimido[1,2-a][1,4]benzodiazepin-3-one] | 8.31 |  | 
16 | CCOCCc1cn2c(nc1=O)CN=C(c1c(F)cccc1F)c1c-2ccc(C(F)(F)F)c1Cl [Example 26, 8-chloro-7-(2,6-difluorophenyl)-2-(2-ethoxyethyl)-9-(trifluoromethyl)-5H-pyrimido[1,2-a][1,4]benzodiazepin-3-one] | 7.67 |  | 
17 | O=c1ccn2c(n1)CN=C(c1c(F)cccc1F)c1c-2ccc(Cl)c1Cl [Example 2, 8,9-dichloro-7-(2,6-difluorophenyl)-5H-pyrimido[1,2-a][1,4]benzodiazepin-3-one] |  | 8.96 | 8.07
18 | CCOCCc1cn2c(nc1=O)[C@H](C)N=C(c1c(F)cccc1F)c1c-2ccc(Cl)c1Cl [Example 21, (5S)-8,9-dichloro-7-(2,6-difluorophenyl)-2-(2-ethoxyethyl)-5-methyl-5H-pyrimido[1,2-a][1,4]benzodiazepin-3-one] | 8.47 |  | 
